In this assay the target is T1, human P2X7 (UniProt Q99572).
T1 sequence (Q99572 1-595): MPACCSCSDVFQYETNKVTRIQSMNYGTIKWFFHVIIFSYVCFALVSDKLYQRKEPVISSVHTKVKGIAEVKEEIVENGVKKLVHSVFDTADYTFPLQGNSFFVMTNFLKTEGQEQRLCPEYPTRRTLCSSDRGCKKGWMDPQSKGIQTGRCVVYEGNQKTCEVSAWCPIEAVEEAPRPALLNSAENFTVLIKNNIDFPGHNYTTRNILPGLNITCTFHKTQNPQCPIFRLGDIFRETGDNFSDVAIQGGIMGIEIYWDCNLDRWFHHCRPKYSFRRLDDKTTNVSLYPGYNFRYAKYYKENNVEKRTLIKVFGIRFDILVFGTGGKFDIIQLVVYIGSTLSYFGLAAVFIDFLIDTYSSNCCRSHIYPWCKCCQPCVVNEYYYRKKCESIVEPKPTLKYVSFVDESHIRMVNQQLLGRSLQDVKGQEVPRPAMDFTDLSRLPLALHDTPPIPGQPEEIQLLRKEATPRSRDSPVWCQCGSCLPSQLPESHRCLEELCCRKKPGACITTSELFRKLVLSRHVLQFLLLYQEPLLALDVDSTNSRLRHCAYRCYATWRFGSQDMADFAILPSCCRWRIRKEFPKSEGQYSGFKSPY
Briefly: Intracellular Calcium Flux (FLIPR) Assay. Type of assay: cell-based. As for the experimental part: Intracellular Calcium Flux (FLIPR) Assay
Compound and Reagent Preparation
Stock solutions of compounds were prepared from powders as a 10 mM DMSO stock solution. These solutions were stored at RT during the two week period of these experiments to prevent freeze-thaw of the DMSO stocks. The DMSO stocks were added to the appropriate assay buffer at a concentration of 10 μM, and then diluted serially to the final concentrations that were tested. No observable precipitate was formed at any time during this process. The aqueous solutions of compounds as well as ATP (Sigma A7699) and BzATP (Sigma B6396) were prepared fresh for each day of experiment.
1321N1 cells stably expressing the full length human P2X7 gene (1321N1-hP2X7) and HEK293 cells stably expressing the full length rat P2X7 gene (HEK293-rP2X7) were obtained from the Roche Cell Culture Facility. 1321N1-hP2X7 cells were grown in Dulbecco's Modified Eagle's Medium (DMEM) high glucose supplemented with 10% FBS and […] G418. HEK293-rP2X7 cells were grown in DMEM/F-12 supplemented with 10% FBS, 1 mM CaCl2, 2 mM MgCl2, 2 mM L-Glutamine and […] G418. Cells were split such that they never became >70% confluent.
Intracellular Calcium Flux (FLIPR)
On the day prior to the experiment, 1321N1-hP2X7 or HEK293-rP2X7 cells were released into suspension with calcium-free PBS+Versene and washed by centrifugation with calcium-free PBS to remove the Versene. Cells were resuspended in growth medium at a density of 2.5×10^5 cells/mL and seeded into black walled, clear bottom 96 well plates (50,000 cells/well) approximately 18 hr prior to intracellular calcium flux experiments.
On the day of the experiment, plates were washed with FLIPR buffer (calcium- and magnesium-free Hank's Balanced Salt Solution (HBSS) supplemented with 10 mM Hepes, 2.5 mM probenecid and 2 mM calcium chloride) using a BIO-TEK 96 channel plate washer and incubated with […] fluo-3 dye at 37° C. for one hr. The dye was then removed by plate washing and the cells were allowed to equilibrate for 20 min at room temperature with antagonist or vehicle (FLIPR buffer). Agonist (100 μM BzATP final concentration for hP2X7; 5 μM BzATP final concentration or rP2X7) was added online with the FLIPR and fluorescence measurements made at 1 sec intervals for 60 sec followed by 3 sec intervals for a further 4 min (5 min total). A final addition of 5 μM ionomycin was made and the maximal BzATP-evoked fluorescence normalized to the maximal ionomycin-evoked fluorescence.
(Calcium flux is commonly read through the fluorescence of an indicator in the cells.)

SMILES strings stand for the structures.

Regarding `COc1cc(Br)c(Nc2nnc3n2C(c2ccccc2)CCC3)cc1OC` (centres unmarked) [Compound 1, (2-Bromo-4,5-dimethoxy-phenyl)-(5-phenyl-5,6,7,8-tetrahydro-[1,2,4]triazolo[4,3-a]pyridin-3-yl)-amine], the pIC50 worked out at 7.25.
The value for `CCc1c(Nc2nnc3n2C(c2ccc(F)cc2)CCC3)ccc2ncccc12` (centres unmarked) [Compound 2, (5-Ethyl-quinolin-6-yl)-[5-(4-fluoro-phenyl)-5,6,7,8-tetrahydro-[1,2,4]triazolo[4,3-a]pyridin-3-yl]-amine] was 7.52; that for `COc1cc(C)c(Nc2nnc3n2[C@H](c2ccc(F)cc2)CCC3)cc1OC` [Compound 4, (4,5-Dimethoxy-2-methyl-phenyl)-[(S)-5-(4-fluoro-phenyl)-5,6,7,8-tetrahydro-[1,2,4]triazolo[4,3-a]pyridin-3-yl]-amine] was 7.98; that for `COc1cc(Br)c(Nc2nnc3n2C(c2ccc(F)cc2)COC3)cc1OC` (centres unmarked) [Compound 5, (2-Bromo-4,5-dimethoxy-phenyl)-[5-(4-fluoro-phenyl)-5,6-dihydro-8H-[1,2,4]triazolo[3,4-c][1,4]oxazin-3-yl]-amine] was 7.775.
The value for `Cc1cc(Cl)c(OCCO)cc1Nc1nnc2n1C(c1ccc(F)cc1)CCC2` (centres unmarked) [Compound 6, 2-{2-Chloro-5-[5-(4-fluoro-phenyl)-5,6,7,8-tetrahydro-[1,2,4]triazolo[4,3-a]pyridin-3-ylamino]-4-methyl-phenoxy}-ethanol] was 6.99.
Then `COc1cc(Br)c(Nc2nnc3n2C(c2ccccc2)CC2(C3)OCCO2)cc1OC` (centres unmarked) [Compound 7, (2-Bromo-4,5-dimethoxy-phenyl)-(7,7′-spiro-ethylenedioxy-5-phenyl-5,6,7,8-tetrahydro-[1,2,4]triazolo[4,3-a]pyridin-3-yl)-amine], with 6.2; and `CCc1c(Nc2nnc3n2[C@H](c2ccc(F)cc2)CCC3)ccc2ncccc12` [Compound 8, (5-Ethyl-quinolin-6-yl)-[(S)-5-(4-fluoro-phenyl)-5,6,7,8-tetrahydro-[1,2,4]triazolo[4,3-a]pyridin-3-yl]-amine], with 7.693; and `CCc1c(Nc2nnc3n2[C@@H](c2ccc(F)cc2)CCC3)ccc2ncccc12` [Compound 9, (5-Ethyl-quinolin-6-yl)-[(R)-5-(4-fluoro-phenyl)-5,6,7,8-tetrahydro-[1,2,4]triazolo[4,3-a]pyridin-3-yl]-amine], with 5.17.
`COc1cc(Br)c(Nc2nnc3n2C(c2ccc(F)cc2)CSC3)cc1OC` (centres unmarked) [Compound 10, (2-Bromo-4,5-dimethoxy-phenyl)-[5-(4-fluoro-phenyl)-5,6-dihydro-8H-[1,2,4]triazolo[3,4-c][1,4]thiazin-3-yl]-amine]: the pIC50 was determined as 7.625.
As to `Cc1ccc2ncccc2c1Nc1nnc2n1[C@H](c1ccccc1)COC2` [Compound 11, (6-Methyl-quinolin-5-yl)-((R)-5-phenyl-5,6-dihydro-8H-[1,2,4]triazolo[3,4-c][1,4]oxazin-3-yl)-amine], the pIC50 was 7.442.
Consider `COc1cc(Br)c(Nc2nnc3n2[C@@H](c2ccc(F)cc2)COC3)cc1OC` [Compound 12, (2-Bromo-4,5-dimethoxy-phenyl)-[(S)-5-(4-fluoro-phenyl)-5,6-dihydro-8H-[1,2,4]triazolo[3,4-c][1,4]oxazin-3-yl]-amine], for which the negative logarithm of the IC50 (pIC50) is listed as 5.1167.
The value for `COc1cc(Br)c(Nc2nnc3n2[C@H](c2ccc(F)cc2)COC3)cc1OC` [Compound 13, (2-Bromo-4,5-dimethoxy-phenyl)-[(R)-5-(4-fluoro-phenyl)-5,6-dihydro-8H-[1,2,4]triazolo[3,4-c][1,4]oxazin-3-yl]-amine] was 7.75.
Take `Cc1cc(-c2ccc(C)c(Nc3nnc4n3[C@H](c3ccc(F)cc3)COC4)c2)n[nH]1` [Compound 14, [(R)-5-(4-Fluoro-phenyl)-5,6-dihydro-8H-[1,2,4]triazolo[3,4-c][1,4]oxazin-3-yl]-[2-methyl-5-(5-methyl-1H-pyrazol-3-yl)-phenyl]-amine]: the pIC50 is recorded as 7.62.
The value for `Cc1cc(Cl)c(OCCO)cc1Nc1nnc2n1[C@H](c1ccc(F)cc1)CCC2` [Compound 15, 2-{2-Chloro-5-[(S)-5-(4-fluoro-phenyl)-5,6,7,8-tetrahydro-[1,2,4]triazolo[4,3-a]pyridin-3-ylamino]-4-methyl-phenoxy}-ethanol] was 7.133; that for `COc1cc(Br)c(Nc2nnc3n2C(c2ccc(F)cc2)C[S+]([O-])C3)cc1OC` (centres unmarked) [Compound 16, (2-Bromo-4,5-dimethoxy-phenyl)-[5-(4-fluoro-phenyl)-7-oxo-5,6,7,8-tetrahydro-7λ^4-[1,2,4]triazolo[3,4-c][1,4]thiazin-3-yl]-amine] was 7.4167.
As for `COc1cc(Br)c(Nc2nnc3n2C(c2ccc(F)cc2)CNC3)cc1OC` (centres unmarked) [Compound 17, (2-Bromo-4,5-dimethoxy-phenyl)-[5-(4-fluoro-phenyl)-5,6,7,8-tetrahydro-[1,2,4]triazolo[4,3-a]pyrazin-3-yl]-amine], the pIC50 was 7.3267.
`Fc1cccc(C2COCc3nnc(Nc4cccc5ncccc45)n32)c1` (centres unmarked) [Compound 20, [5-(3-Fluoro-phenyl)-5,6-dihydro-8H-[1,2,4]triazolo[3,4-c][1,4]oxazin-3-yl]-quinolin-5-yl-amine]: the pIC50 stood at 6.987.
Then `Cc1cnn(-c2ccc(C)c(Nc3nnc4n3[C@H](c3ccc(F)cc3)COC4)c2)c1` [Compound 22, [(R)-5-(4-Fluoro-phenyl)-5,6-dihydro-8H-[1,2,4]triazolo[3,4-c][1,4]oxazin-3-yl]-[2-methyl-5-(4-methyl-pyrazol-1-yl)-phenyl]-amine], with 7.855; and `COc1cc(C)c(Nc2nnc3n2C(C)(c2ccc(F)cc2)COC3)cc1OC` (centres unmarked) [Compound 23, (4,5-Dimethoxy-2-methyl-phenyl)-[5-(4-fluoro-phenyl)-5-methyl-5,6-dihydro-8H-[1,2,4]triazolo[3,4-c][1,4]oxazin-3-yl]-amine], with 6.9; and `COc1cc(Br)c(Nc2nnc3n2C(c2ccc(F)cc2)CN(C(C)=O)C3)cc1OC` (centres unmarked) [Compound 24, 1-[3-(2-Bromo-4,5-dimethoxy-phenylamino)-5-(4-fluoro-phenyl)-5,6-dihydro-8H-[1,2,4]triazolo[4,3-a]pyrazin-7-yl]-ethanone], with 6.945.
Take `Cc1ccc2ncccc2c1Nc1nnc2n1C(c1cccc(F)c1)COC2` (centres unmarked) [Compound 25, [5-(3-Fluoro-phenyl)-5,6-dihydro-8H-[1,2,4]triazolo[3,4-c][1,4]oxazin-3-yl]-(6-methyl-quinolin-5-yl)-amine]: the pIC50 is listed as 7.735.
The value for `COc1cc(Br)c(Nc2nnc3n2C(c2ccc(F)cc2)CN(C)C3)cc1OC` (centres unmarked) [Compound 26, (2-Bromo-4,5-dimethoxy-phenyl)-[5-(4-fluoro-phenyl)-7-methyl-5,6,7,8-tetrahydro-[1,2,4]triazolo[4,3-a]pyrazin-3-yl]-amine] was 7.32; that for `Cc1ccc2c(Nc3nnc4n3[C@H](c3ccc(F)cc3)COC4)cccc2n1` [Compound 27, [(R)-5-(4-Fluoro-phenyl)-5,6-dihydro-8H-[1,2,4]triazolo[3,4-c][1,4]oxazin-3-yl]-(2-methyl-quinolin-5-yl)-amine] was 6.76.

In general, pIC50 refers to −log10 of the IC50, conventionally taken in molar units.

For the origin of these results see patent US8871760B2, “[1,2,4]triazolo[3,4-C][1,4]oxazines as P2X7 modulators” (Roche Palo Alto LLC, priority 2009, dated 2014).
